According to ChEMBL document CHEMBL1671626, “In vitro profiling of ceftaroline against a collection of recent bacterial clinical isolates from across the United States” (2008):

Tests used:
Type in all cases: functional
Staphylococcus aureus [1] = experiment: Antibacterial activity against methicillin-resistant Staphylococcus aureus by CLSI M7-A7 broth microdilution method
Staphylococcus aureus [2] = experiment: Antibacterial activity against methicillin-resistant Staphylococcus aureus assessed as susceptible isolates by CLSI M7-A7 broth microdilution method
Staphylococcus aureus [3] = experiment: Antibacterial activity against coagulase-negative and oxacillin-susceptible Staphylococcus aureus by CLSI M7-A7 broth microdilution method
Staphylococcus aureus [4] = experiment: Antibacterial activity against coagulase-negative and oxacillin-susceptible Staphylococcus aureus assessed as resistant isolates by CLSI M7-A7 broth microdilution method
Staphylococcus aureus [5] = experiment: Antibacterial activity against coagulase-negative and oxacillin-resistant Staphylococcus aureus assessed as susceptible isolates by CLSI M7-A7 broth microdilution method
Streptococcus pneumoniae [6] = experiment: Antibacterial activity against penicillin-susceptible Streptococcus pneumoniae assessed as susceptible isolates by CLSI M7-A7 broth microdilution method
Streptococcus pneumoniae [7] = experiment: Antibacterial activity against penicillin-resistant Streptococcus pneumoniae assessed as resistant isolates by CLSI M7-A7 broth microdilution method
Streptococcus pyogenes = experiment: Antibacterial activity against erythromycin-susceptible Streptococcus pyogenes assessed as susceptible isolates by CLSI M7-A7 broth microdilution method
Streptococcus agalactiae [8] = experiment: Antibacterial activity against erythromycin-susceptible Streptococcus agalactiae assessed as susceptible isolates by CLSI M7-A7 broth microdilution method
Streptococcus agalactiae [9] = experiment: Antibacterial activity against erythromycin-nonsusceptible Streptococcus agalactiae assessed as susceptible isolates by CLSI M7-A7 broth microdilution method
Streptococcus viridans [10] = experiment: Antibacterial activity against penicillin-susceptible Streptococcus viridans assessed as susceptible isolates by CLSI M7-A7 broth microdilution method
Streptococcus viridans [11] = experiment: Antibacterial activity against penicillin-susceptible Streptococcus viridans assessed as resistant isolates by CLSI M7-A7 broth microdilution method
Streptococcus viridans [12] = experiment: Antibacterial activity against penicillin-nonsusceptible Streptococcus viridans by CLSI M7-A7 broth microdilution method
Streptococcus viridans [13] = experiment: Antibacterial activity against penicillin-nonsusceptible Streptococcus viridans assessed as susceptible isolates by CLSI M7-A7 broth microdilution method
Enterococcus faecalis = experiment: Antibacterial activity against vancomycin-susceptible Enterococcus faecalis by CLSI M7-A7 broth microdilution method
Enterobacteriaceae [14] = experiment: Antibacterial activity against ceftazidime-susceptible Enterobacteriaceae by CLSI M7-A7 broth microdilution method
Enterobacteriaceae [15] = experiment: Antibacterial activity against ceftazidime-susceptible Enterobacteriaceae assessed as susceptible isolates by CLSI M7-A7 broth microdilution method
Enterobacteriaceae [16] = experiment: Antibacterial activity against ceftazidime-susceptible Enterobacteriaceae assessed as resistant isolates by CLSI M7-A7 broth microdilution method
Enterobacteriaceae [17] = experiment: Antibacterial activity against ceftazidime-nonsusceptible Enterobacteriaceae assessed as resistant isolates by CLSI M7-A7 broth microdilution method
Citrobacter freundii [18] = experiment: Antibacterial activity against ceftazidime-susceptible Citrobacter freundii by CLSI M7-A7 broth microdilution method
Citrobacter freundii [19] = experiment: Antibacterial activity against ceftazidime-susceptible Citrobacter freundii assessed as resistant isolates by CLSI M7-A7 broth microdilution method
Citrobacter freundii [20] = experiment: Antibacterial activity against ceftazidime-nonsusceptible Citrobacter freundii by CLSI M7-A7 broth microdilution method
Citrobacter freundii [21] = experiment: Antibacterial activity against ceftazidime-nonsusceptible Citrobacter freundii assessed as susceptible isolates by CLSI M7-A7 broth microdilution method
Citrobacter freundii [22] = experiment: Antibacterial activity against ceftazidime-nonsusceptible Citrobacter freundii assessed as resistant isolates by CLSI M7-A7 broth microdilution method
Enterobacter cloacae [23] = experiment: Antibacterial activity against ceftazidime-susceptible Enterobacter cloacae by CLSI M7-A7 broth microdilution method
Enterobacter cloacae [24] = experiment: Antibacterial activity against ceftazidime-susceptible Enterobacter cloacae assessed as resistant isolates by CLSI M7-A7 broth microdilution method
Enterobacter cloacae [25] = experiment: Antibacterial activity against ceftazidime-nonsusceptible Enterobacter cloacae assessed as resistant isolates by CLSI M7-A7 broth microdilution method
Escherichia coli [26] = experiment: Antibacterial activity against ceftazidime-susceptible Escherichia coli assessed as resistant isolates by CLSI M7-A7 broth microdilution method
Escherichia coli [27] = experiment: Antibacterial activity against ceftazidime-nonsusceptible Escherichia coli assessed as susceptible isolates by CLSI M7-A7 broth microdilution method
Escherichia coli [28] = experiment: Antibacterial activity against ceftazidime-nonsusceptible Escherichia coli assessed as resistant isolates by CLSI M7-A7 broth microdilution method
Klebsiella pneumoniae [29] = experiment: Antibacterial activity against ceftazidime-susceptible Klebsiella pneumoniae assessed as susceptible isolates by CLSI M7-A7 broth microdilution method
Klebsiella pneumoniae [30] = experiment: Antibacterial activity against ceftazidime-nonsusceptible Klebsiella pneumoniae by CLSI M7-A7 broth microdilution method
Klebsiella pneumoniae [31] = experiment: Antibacterial activity against ceftazidime-nonsusceptible Klebsiella pneumoniae assessed as susceptible isolates by CLSI M7-A7 broth microdilution method
Klebsiella pneumoniae [32] = experiment: Antibacterial activity against ceftazidime-nonsusceptible Klebsiella pneumoniae assessed as resistant isolates by CLSI M7-A7 broth microdilution method
Morganella morganii = experiment: Antibacterial activity against ceftazidime-susceptible Morganella morganii assessed as susceptible isolates by CLSI M7-A7 broth microdilution method
Proteus mirabilis [33] = experiment: Antibacterial activity against ceftazidime-susceptible Proteus mirabilis assessed as susceptible isolates by CLSI M7-A7 broth microdilution method
Proteus mirabilis [34] = experiment: Antibacterial activity against ceftazidime-susceptible Proteus mirabilis assessed as resistant isolates by CLSI M7-A7 broth microdilution method
Serratia marcescens = experiment: Antibacterial activity against ceftazidime-susceptible Serratia marcescens assessed as susceptible isolates by CLSI M7-A7 broth microdilution method
Acinetobacter = experiment: Antibacterial activity against multidrug-resistant Acinetobacter assessed as resistant isolates by CLSI M7-A7 broth microdilution method
Haemophilus influenzae [35] = experiment: Antibacterial activity against beta lactamase-negative Haemophilus influenzae by CLSI M7-A7 broth microdilution method
Haemophilus influenzae [36] = experiment: Antibacterial activity against beta lactamase-positive Haemophilus influenzae by CLSI M7-A7 broth microdilution method
Pasteurella multocida [37] = experiment: Antibacterial activity against Pasteurella multocida by CLSI M7-A7 broth microdilution method
Pasteurella multocida [38] = experiment: Antibacterial activity against Pasteurella multocida assessed as susceptible isolates by CLSI M7-A7 broth microdilution method
Providencia sp. [39] = experiment: Antibacterial activity against ceftazidime-susceptible Providencia sp. by CLSI M7-A7 broth microdilution method
Providencia sp. [40] = experiment: Antibacterial activity against ceftazidime-susceptible Providencia sp. assessed as resistant isolates by CLSI M7-A7 broth microdilution method

C[C@H]1COc2c(N3CCN(C)CC3)c(F)cc3c(=O)c(C(=O)O)cn1c23.C[C@H]1COc2c(N3CCN(C)CC3)c(F)cc3c(=O)c(C(=O)O)cn1c23.O [LEVOFLOXACIN]
MIC50 (Staphylococcus aureus [1]): 8 µg/mL | MIC90 (Staphylococcus aureus [1]): > 16 µg/mL | Activity (Staphylococcus aureus [2]): 25.6% | MIC50 (Staphylococcus aureus [3]): 0.12 µg/mL | MIC90 (Staphylococcus aureus [3]): 8 µg/mL | Activity (Staphylococcus aureus [4]): 17.9% | Activity (Staphylococcus aureus [5]): 21.7% | Activity (Streptococcus pneumoniae [6]): 98.5% | Activity (Streptococcus pneumoniae [7]): 0.7% | Activity (Streptococcus pyogenes): 100% | Activity (Streptococcus agalactiae [8]): 100% | Activity (Streptococcus agalactiae [9]): 97.6% | Activity (Streptococcus viridans [10]): 100% | Activity (Streptococcus viridans [11]): 0% | MIC50 (Streptococcus viridans [12]): 1 µg/mL | MIC90 (Streptococcus viridans [12]): 2 µg/mL | Activity (Streptococcus viridans [13]): 92.9% | MIC50 (Enterococcus faecalis): 1 µg/mL | MIC90 (Enterococcus faecalis): > 16 µg/mL | MIC50 (Enterobacteriaceae [14]): 0.06 µg/mL | MIC90 (Enterobacteriaceae [14]): 4 µg/mL | Activity (Enterobacteriaceae [15]): 89.6% | Activity (Enterobacteriaceae [16]): 9.4% | Activity (Enterobacteriaceae [17]): 51.4% | MIC (Citrobacter freundii [18]): ≤ 0.03 µg/mL | MIC50 (Citrobacter freundii [18]): ≤ 0.03 µg/mL | MIC90 (Citrobacter freundii [18]): 1 µg/mL | Activity (Citrobacter freundii [19]): 0% | MIC50 (Citrobacter freundii [20]): 0.25 µg/mL | MIC90 (Citrobacter freundii [20]): 16 µg/mL | Activity (Citrobacter freundii [21]): 72.7% | Activity (Citrobacter freundii [22]): 24.2% | MIC (Enterobacter cloacae [23]): ≤ 0.03 µg/mL | MIC50 (Enterobacter cloacae [23]): ≤ 0.03 µg/mL | MIC90 (Enterobacter cloacae [23]): 0.5 µg/mL | Activity (Enterobacter cloacae [24]): 2% | Activity (Enterobacter cloacae [25]): 25.7% | Activity (Escherichia coli [26]): 13.6% | Activity (Escherichia coli [27]): 14.3% | Activity (Escherichia coli [28]): 85.7% | Activity (Klebsiella pneumoniae [29]): 98.1% | MIC50 (Klebsiella pneumoniae [30]): 8 µg/mL | MIC90 (Klebsiella pneumoniae [30]): > 16 µg/mL | Activity (Klebsiella pneumoniae [31]): 37.9% | Activity (Klebsiella pneumoniae [32]): 54.5% | Activity (Morganella morganii): 76.5% | Activity (Proteus mirabilis [33]): 75.9% | Activity (Proteus mirabilis [34]): 20.7% | Activity (Serratia marcescens): 98.3% | Activity (Acinetobacter): 87.5% | MIC50 (Haemophilus influenzae [35]): 0.015 µg/mL | MIC90 (Haemophilus influenzae [35]): 0.03 µg/mL | MIC50 (Haemophilus influenzae [36]): 0.015 µg/mL | MIC90 (Haemophilus influenzae [36]): 0.03 µg/mL | MIC50 (Pasteurella multocida [37]): ≤ 0.015 µg/mL | MIC90 (Pasteurella multocida [37]): 0.03 µg/mL | Activity (Pasteurella multocida [38]): 95.5% | MIC50 (Providencia sp. [39]): 0.25 µg/mL | MIC90 (Providencia sp. [39]): > 16 µg/mL | Activity (Providencia sp. [40]): 25.9%
